Literature values as cited in publication PMC7180456, “Multitarget Anticancer Agents Based on Histone Deacetylase and Protein Kinase CK2 Inhibitors” (Molecules, 2020).

How the values were obtained:
[1] = tested on: CK2; settings: Figure 3; read-out: CK2 IC50 of previously described dual inhibitors; cited from earlier work
[2] = tested on: two mammalian cell lines; set-up: method as in doi:10.1039/C6RA09717K; settings: cited from earlier work
[3] = tested on: HDAC1; set-up: method as in doi:10.1039/C6RA09717K; settings: Figure 3; read-out: HDAC1 IC50 of previously described dual inhibitors; cited from earlier work
[4] = tested on: HL-60/vinc line; set-up: method as in PMID 17904109; settings: cited from earlier work
[5] = tested on: HL-60/adr line; set-up: method as in PMID 17904109; settings: cited from earlier work
[6] = tested on: HDAC; set-up: method as in PMID 29733427; settings: Figure 2; read-out: IC50 of FDA-approved HDAC inhibitors; cited from earlier work
[7] = molecular target: HDAC-6; settings: Figure 4; read-out: Ki, HDAC-6 inhibitor; cited from earlier work

| Compound | IC50 [1] [nM] | IC50 [3] [nM] | IC50 [6] [nM] | also measured |
| --- | --- | --- | --- | --- |
| O=C(CCn1cc(CCn2nc3c(Br)c(Br)c(Br)c(Br)c3n2)nn1)NO [Compound 2] | 50000 | 2200 | – | cytotoxic activity LC50 [2]: low micromolar |
| COc1cccc2c1C(=O)c1c(O)c3c(c(O)c1C2=O)C[C@@](O)(C(=O)CO)C[C@@H]3O[C@H]1C[C@H](N)[C@H](O)[C@H](C)O1 [doxorubicin] | – | – | – | resistance of the MDR cell model to the drug [4]: 140 fold; resistance of the MDR cell model to the drug [5]: 80 fold |
| C/C=C1\NC(=O)[C@H]2CSSCC/C=C/[C@H](CC(=O)N[C@H](C(C)C)C(=O)N2)OC(=O)[C@H](C(C)C)NC1=O [Romidepsin] | – | – | 36 | – |
| CN1C(=O)C2Cc3c(c4ccccc4n3Cc3ccc(C(=O)NO)cc3)C(C2)C1=O (stereo not shown) [Marbostat-100] | – | – | – | Ki [7]: 0.7 nM |
| O=C(CCn1cc(CCn2nnc3c(Br)c(Br)c(Br)c(Br)c32)nn1)NO [Compound 1] | 5400 | 5000 | – | – |
| Cc1[nH]c2ccccc2c1CCNCc1ccc(/C=C/C(=O)NO)cc1 [Panobinostat] | – | – | 5 to 20 | – |
